{
  "source": "patent US10888622B2",
  "about": "“Nanocomplexes of modified peptides or proteins” (Trustees of Tufts College, priority 2013, dated 2021)",
  "system": "B16F10 cancer cells",
  "assay": "In vitro protein transfection: delivery of RNase A into B16F10 cancer cells, cell viability by Alamar Blue assay",
  "assay_type": "cell-based",
  "description": "Compositions A-D and Comparative Compositions A′-D′ and D″ were tested for delivery of RNase A into B16F10 cancer cells.\nB16F10 cancer cells were cultured in Dulbecco's Modified Eagle Medium supplemented with 10% Fetal Bovine Serum and 1% penicillin/streptomycin at 37° C. in the presence of 5% CO2. For the protein transfection assay described below, cells were seeded in 96-well plates at a density of 10,000 cells per well a day prior to transfection.\nTo evaluate protein delivery efficiency, Compositions A-D and Comparative Compositions A′-D′ and D″ described in Examples 1-4 were added to B16F10 cancer cells and incubated at 37° C. for 24 hours. The protein concentration was 3.3 μg/mL in PBS. Compound EC16-63, dissolved in the same volume of PBS, was used as a control. The cell viability was determined by the Alamar Blue assay after 24 hours of incubation. All transfection studies were performed in quadruplicate.",
  "data": [
    {"compound": "CCCCCCCCCCCCCCC(O)CN(C)CCCN(C)CC(O)CCCCCCCCCCCCCC", "note": "(centres unmarked) [Compound EC16-63]", "values": [
      {"measurement": "cell viability (lipid-like compound alone, control)", "setting": "24 hours incubation, compound dissolved in same volume of PBS, no protein", "result": 90, "unit": "%"},
      {"measurement": "cytotoxicity (in words)", "setting": "lipid-like compound alone, 24 hours", "result": "low cytotoxicity"}
    ]}
  ]
}
